Measured values taken from US6046018A, “Highly sensitive method for assaying chiro-inositol and compositions for the assay” (priority 1997, dated 2000).
Values joined by “and” are separate entries in the source; they are usually repeats but may differ in a detail not shown here. Equal entries are not always repeated.

Legend:
[1] = system: dehydrogenase which catalyses chiroinositol (Bacillus sp. No. 3 origin); test: Km value; assay type: biochemical
Experimental: 100 mM glycine-NaOH buffer (pH 11.0)
1 mM NAD (Oriental Yeast Corp., Japan)
10 mM D-chiroinosiol (Wako Pure Chemicals Inc., Japan)
The above reaction solution 1 ml in quartz cell is set in spectrophotometer which is (controlled at 37° C. After over 5 minutes incubation, aliquot diluted enzyme solution 20 μl is added and stirred. Absorption changes per minute at A340 are measured to obtain initial reaction rate and to calculate relative activity.
Km values are measured at various concentrations using 10 mM
D-chiroinositol and mM NAD.
Km for thio-NAD is measured by replacing NAD to thio-NAD.

[2] = system: dehydrogenase which catalyses chiroinositol (Bacillus sp. No. 3 origin); test: Substrate specificity (Table 1); assay type: biochemical; settings: equal concentration of substrates; glycine-NaOH pH 9.8, thio-NAD/NADH cycling
Experimental: Substrate specificity is assayed by using following reaction solution at the equal concentration of substrates.
200 mM glycine-NaOH buffer (pH 9.8)
0.03 mM NADH (Oriental Yeast Corp., Japan)
100 U/ml dehydrogenase which catalyses chiroinosiol
2 Mm thio-NAD (Oriental Yeast Corp., Japan)
D-chiroinositol, galactose, fructose, mannitol, mannose; Japan, Wako Pure Chemicals Inc., myo-, epi-, scyllo-inositol U.S.A. SIGMA Corp.

[3] = system: crude enzyme which catalyses chiroinositol, A. r. 1215 origin; test: Km value for D-chiroinositol; assay type: biochemical, Agrobacterium rhizogenes 1215
Experimental: (§1) Km value for D-chiroinositol is shown. Measurement is performed by changing substrate concentration in the above assay method.

[4] = system: crude enzyme which catalyses chiroinositol, S. r. 301 origin; test: Km value for D-chiroinositol; assay type: biochemical, Streptomyces roseogriseus 301
Experimental: as §1

[5] = system: crude enzyme which catalyses chiroinositol, A. r. 1215 origin; test: Substrate specificity (Table 3); assay type: biochemical, Agrobacterium rhizogenes 1215; settings: coenzyme replaced by thio-NADP
Source text: (§2) In A. r. 1215 origin, the same assay method used in Bacillus sp. No. 3 is applied by replacing coenzyme to thio-NADP. In S. r. 301 origin, the reaction solution used for enzyme assay is used by replacing D-chiroinositol for various concentrations of substrates with adding constant concentration of enzyme solution to assay relative activities.

[6] = system: crude enzyme which catalyses chiroinositol, S. r. 301 origin; test: Substrate specificity (Table 3); assay type: biochemical, Streptomyces roseogriseus 301; parameters: concentration or dose not given beside the values; settings: enzyme assay reaction solution, D-chiroinositol replaced by substrates
Source text: as §2

[7] = system: dehydrogenase which catalyses chiroinositol (Bacillus sp. No. 3 origin); test: Initial rate of enzyme reaction with various coenzymes; assay type: biochemical; settings: 10 mM D-chiroinositol, 1 mM coenzyme; for Initial rate of enzyme reaction: 37° C., at optimum pH; for Optimum pH for the coenzyme: 100 mM Gly-NaOH buffer
Experimental: 100 mM Gly-NaOH buffer approx. pH 10 (at optimum pH)
10 mM D-chiroinositol (Wako Pure Chemicals Inc., Japan)
1 mM Coenzyme (NAD(P), thio-NAD(P); Oriental Yeast
Optimum pH are pH 11.0 for NAD, deamino NAD and thio-NAD, pH 10.5 for acetyl NAD, and pH 10.0 for aldehyde NAD and NADP.
The above reaction solution 1 ml in quartz cell is set in spectrophotometer which is controlled at 37° C. After over 5 minutes incubation, enzyme solution 140 U/ml (NAD and deamino NAD; 14 U/ml) 20 μl is added and stirred. Absorption changes per minute in specific wavelength for each reduced coenzyme is measured to obtain initial reaction rate. (For NAD and deamino NAD, measured value is increased number by ten for adjusting the amount of enzyme.)

[8] = system: crude enzyme which catalyses chiroinositol, A. r. 1215 origin; test: Relative activities using various coenzymes (Table 2); assay type: biochemical, Agrobacterium rhizogenes 1215; settings: activity using NAD is set as 100%
Source text: (§3) The same as in the enzyme originated from Bacillus sp. No. 3.
(§4) The same as in the enzyme originated from Bacillus sp. No. 3. Relative activities using various coenzymes are shown in Table 2 (activity using NAD is set as 100%).

[9] = system: crude enzyme which catalyses chiroinositol, S. r. 301 origin; test: as above; assay type: biochemical, Streptomyces roseogriseus 301; settings: activity using NAD is set as 100%
Source text: as §3, §4

[10] = system: dehydrogenase which catalyses chiroinositol (Bacillus sp. No. 3 origin); test: Initial rate of enzyme reaction with various coenzymes; assay type: biochemical; settings: thio-NAD forward reaction, NADH reverse reaction
[11] = NAD and deamino NAD values increased by ten for enzyme amount

Compound | Relative activity [2] | Relative activity, A.r.1215 origin [5] | Relative activity, S.r.301 origin [6] | Optimum pH for the coenzyme [7] | Relative activity, A.r.1215 origin [8] | Relative activity, S.r.301 origin [9] | further results
O[C@H]1[C@H](O)[C@H](O)[C@@H](O)[C@H](O)[C@H]1O [D-chiroinositol] | 100% | 100% | 100% |  |  |  | Km ([1]; NAD replaced by thio-NAD): 12800 ± 500 µM; Km ([1]; coenzyme NAD): 5200 ± 500 µM; Km [3]: 30.6 ± 1 mM; Km [4]: 27.6 ± 1 mM
NC(=O)c1ccc[n+]([C@@H]2O[C@H](COP(=O)([O-])OP(=O)(O)OC[C@H]3O[C@@H](n4cnc5c(N)ncnc54)[C@H](O)[C@@H]3O)[C@@H](O)[C@H]2O)c1 [NAD, nicotinamide adenine dinucleotide] |  |  |  | 11.0 pH | 190% | 100% | Initial rate of enzyme reaction [7, 11]: 13 Abs/min.; Km ([1]; coenzyme NAD): 500 ± 100 µM
NC(=O)C1=CN([C@@H]2O[C@H](COP(=O)(O)OP(=O)(O)OC[C@H]3O[C@@H](n4cnc5c(N)ncnc54)[C@H](O)[C@@H]3O)[C@@H](O)[C@H]2O)C=CC1 [NADH] |  |  |  |  |  |  | Optimum pH of reaction in the cycling reaction [10]: ~10.0 pH
NC(=O)c1ccc[n+]([C@@H]2O[C@H](COP(=O)([O-])OP(=O)(O)OC[C@H]3O[C@@H](n4cnc5c(N)ncnc54)[C@H](OP(=O)(O)O)[C@@H]3O)[C@@H](O)[C@H]2O)c1 [NADP] |  |  |  | 10.0 pH | 1855% | 0% | Initial rate of enzyme reaction [7]: 80 mAbs/min.
CC(=O)c1ccc[n+]([C@@H]2O[C@H](COP(=O)([O-])OP(=O)(O)OC[C@H]3O[C@@H](n4cnc5c(N)ncnc54)[C@H](O)[C@@H]3O)[C@@H](O)[C@H]2O)c1 [acetyl NAD, acetylpyridine adenine dinucleotide] |  |  |  | 10.5 pH | 26% | 195% | Initial rate of enzyme reaction [7]: 260 mAbs/min.
Nc1ncnc2c1ncn2[C@@H]1O[C@H](COP(=O)(O)OP(=O)([O-])OC[C@H]2O[C@@H]([n+]3cccc(C=O)c3)[C@H](O)[C@@H]2O)[C@@H](O)[C@H]1O [aldehyde NAD, pyridine aldehyde adenine dinucleotide] |  |  |  | 10.0 pH | 15% | 20% | Initial rate of enzyme reaction [7]: 140 mAbs/min.
NC(=O)c1ccc[n+]([C@@H]2O[C@H](COP(=O)([O-])OP(=O)(O)OC[C@H]3O[C@@H](n4cnc5c(=O)[nH]cnc54)[C@H](O)[C@@H]3O)[C@@H](O)[C@H]2O)c1 [deamino NAD, nicotinamide hypoxanthine dinucleotide] |  |  |  | 11.0 pH | 44% | 110% | Initial rate of enzyme reaction [7, 11]: 12 Abs/min.
O[C@H]1[C@@H](O)[C@@H](O)[C@@H](O)[C@@H](O)[C@@H]1O [epi-inositol] | 0% | 0% | 4% |  |  |  | 
O=C(CO)[C@@H](O)[C@H](O)[C@H](O)CO [fructose] | 0% | 0% | 0% |  |  |  | 
OC[C@@H](O)[C@@H](O)[C@H](O)[C@H](O)CO [mannitol] | 0% | 0% | 0% |  |  |  | 
O[C@H]1[C@H](O)[C@@H](O)[C@H](O)[C@@H](O)[C@H]1O [myoinositol] | 9% | 33% | 0% |  |  |  | 
O[C@H]1[C@H](O)[C@@H](O)[C@H](O)[C@@H](O)[C@@H]1O [scylloinositol] | 0% | 0% | 0% |  |  |  | 
NC(=S)c1ccc[n+]([C@@H]2O[C@H](COP(=O)([O-])OP(=O)(O)OC[C@H]3O[C@@H](n4cnc5c(N)ncnc54)[C@H](O)[C@@H]3O)[C@@H](O)[C@H]2O)c1 [thio-NAD, thio-nicotinamide adenine dinucleotide] |  |  |  | 11.0 pH | 0% | 6% | Initial rate of enzyme reaction [7, 11]: 2.5 Abs/min.; Km ([1]; NAD replaced by thio-NAD): 900 µM and 870 µM; Optimum pH of reaction in the cycling reaction [10]: ~10.5 pH
NC(=S)c1ccc[n+]([C@@H]2O[C@H](COP(=O)([O-])OP(=O)(O)OC[C@H]3O[C@@H](n4cnc5c(N)ncnc54)[C@H](OP(=O)(O)O)[C@@H]3O)[C@@H](O)[C@H]2O)c1 [thio-NADP] |  |  |  |  | 269% | 0% | 
galactose | 0% |  |  |  |  |  | 
mannose | 0% | 10% | 0% |  |  |  | 
